In the kinase profiling compilation of Christmann-Franck et al. (2016):

Assays:
Assay in all cases: KINOMEscan competition binding
Details in all cases: compound 10.0 µM
[1] = molecular target: AAK1 (human) (UniProt Q2M2I8)
[2] = molecular target: ACVR1 (human) (UniProt Q04771)
[3] = molecular target: ACVRL1 (human) (UniProt P37023)
[4] = molecular target: AKT1 (human) (UniProt P31749)
[5] = molecular target: CAMKK1 (human) (UniProt Q8N5S9)
[6] = molecular target: CAMKK2 (human) (UniProt Q96RR4)
[7] = molecular target: CDK13 (human) (UniProt Q14004)
[8] = molecular target: CDK4 CCND3 (human) (UniProt P11802+P30281)
[9] = molecular target: CRK2 (P.falciparum) (UniProt P61075)
[10] = molecular target: DSTYK (human) (UniProt Q6XUX3)
[11] = molecular target: EPHB1 (human) (UniProt P54762)
[12] = molecular target: EPHB4 (human) (UniProt P54760)
[13] = molecular target: FGFR3 (human) (UniProt P22607)
[14] = molecular target: FGFR4 (human) (UniProt P22455)
[15] = molecular target: FRK (human) (UniProt P42685)
Chain of FRK (human) (P42685 whole entry, looked up): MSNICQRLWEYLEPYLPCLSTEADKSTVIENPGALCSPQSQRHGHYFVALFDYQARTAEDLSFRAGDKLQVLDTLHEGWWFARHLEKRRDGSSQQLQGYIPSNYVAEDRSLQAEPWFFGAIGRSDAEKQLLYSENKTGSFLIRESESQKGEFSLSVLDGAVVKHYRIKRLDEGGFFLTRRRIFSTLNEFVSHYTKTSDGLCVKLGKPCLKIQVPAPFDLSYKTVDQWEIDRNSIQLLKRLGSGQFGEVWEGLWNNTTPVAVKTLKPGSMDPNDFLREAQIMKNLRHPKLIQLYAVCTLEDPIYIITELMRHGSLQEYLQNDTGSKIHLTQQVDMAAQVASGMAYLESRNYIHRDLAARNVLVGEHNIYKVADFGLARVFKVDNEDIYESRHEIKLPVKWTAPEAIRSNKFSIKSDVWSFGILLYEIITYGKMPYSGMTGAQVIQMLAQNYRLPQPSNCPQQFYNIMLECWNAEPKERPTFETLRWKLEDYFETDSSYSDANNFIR

[16] = molecular target: ITK (human) (UniProt Q08881)
[17] = molecular target: JAK2 JH1 catalytic (human) (UniProt O60674)
[18] = molecular target: LTK (human) (UniProt P29376)
Chain of LTK (human) (P29376 whole entry, looked up): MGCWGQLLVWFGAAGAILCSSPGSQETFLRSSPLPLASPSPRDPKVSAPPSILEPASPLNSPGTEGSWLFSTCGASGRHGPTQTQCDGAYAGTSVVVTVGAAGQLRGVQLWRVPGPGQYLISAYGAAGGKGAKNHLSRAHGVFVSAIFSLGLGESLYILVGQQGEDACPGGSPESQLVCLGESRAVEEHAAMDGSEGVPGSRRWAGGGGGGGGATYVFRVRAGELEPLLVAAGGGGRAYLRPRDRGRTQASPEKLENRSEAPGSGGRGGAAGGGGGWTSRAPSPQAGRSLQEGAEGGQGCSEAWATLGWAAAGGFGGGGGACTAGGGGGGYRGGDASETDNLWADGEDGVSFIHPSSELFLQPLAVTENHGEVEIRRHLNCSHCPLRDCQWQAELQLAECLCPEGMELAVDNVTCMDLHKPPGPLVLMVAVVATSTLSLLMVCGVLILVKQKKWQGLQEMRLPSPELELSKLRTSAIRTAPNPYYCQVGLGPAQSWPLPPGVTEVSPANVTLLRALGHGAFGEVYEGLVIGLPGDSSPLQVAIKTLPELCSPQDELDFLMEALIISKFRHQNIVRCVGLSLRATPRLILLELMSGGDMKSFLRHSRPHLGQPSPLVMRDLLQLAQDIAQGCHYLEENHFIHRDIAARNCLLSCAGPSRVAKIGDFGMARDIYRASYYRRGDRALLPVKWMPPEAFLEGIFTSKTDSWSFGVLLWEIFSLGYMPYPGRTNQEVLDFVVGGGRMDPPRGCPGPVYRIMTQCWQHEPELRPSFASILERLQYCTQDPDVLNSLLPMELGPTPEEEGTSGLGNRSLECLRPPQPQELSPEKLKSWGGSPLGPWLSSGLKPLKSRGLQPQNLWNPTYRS

[19] = molecular target: MAP3K1 (human) (UniProt Q13233)
[20] = molecular target: MAP3K3 (human) (UniProt Q99759)
[21] = molecular target: MAP3K4 (human) (UniProt Q9Y6R4)
[22] = molecular target: MAP3K9 (human) (UniProt P80192)
Chain of MAP3K9 (human) (P80192 whole entry, looked up): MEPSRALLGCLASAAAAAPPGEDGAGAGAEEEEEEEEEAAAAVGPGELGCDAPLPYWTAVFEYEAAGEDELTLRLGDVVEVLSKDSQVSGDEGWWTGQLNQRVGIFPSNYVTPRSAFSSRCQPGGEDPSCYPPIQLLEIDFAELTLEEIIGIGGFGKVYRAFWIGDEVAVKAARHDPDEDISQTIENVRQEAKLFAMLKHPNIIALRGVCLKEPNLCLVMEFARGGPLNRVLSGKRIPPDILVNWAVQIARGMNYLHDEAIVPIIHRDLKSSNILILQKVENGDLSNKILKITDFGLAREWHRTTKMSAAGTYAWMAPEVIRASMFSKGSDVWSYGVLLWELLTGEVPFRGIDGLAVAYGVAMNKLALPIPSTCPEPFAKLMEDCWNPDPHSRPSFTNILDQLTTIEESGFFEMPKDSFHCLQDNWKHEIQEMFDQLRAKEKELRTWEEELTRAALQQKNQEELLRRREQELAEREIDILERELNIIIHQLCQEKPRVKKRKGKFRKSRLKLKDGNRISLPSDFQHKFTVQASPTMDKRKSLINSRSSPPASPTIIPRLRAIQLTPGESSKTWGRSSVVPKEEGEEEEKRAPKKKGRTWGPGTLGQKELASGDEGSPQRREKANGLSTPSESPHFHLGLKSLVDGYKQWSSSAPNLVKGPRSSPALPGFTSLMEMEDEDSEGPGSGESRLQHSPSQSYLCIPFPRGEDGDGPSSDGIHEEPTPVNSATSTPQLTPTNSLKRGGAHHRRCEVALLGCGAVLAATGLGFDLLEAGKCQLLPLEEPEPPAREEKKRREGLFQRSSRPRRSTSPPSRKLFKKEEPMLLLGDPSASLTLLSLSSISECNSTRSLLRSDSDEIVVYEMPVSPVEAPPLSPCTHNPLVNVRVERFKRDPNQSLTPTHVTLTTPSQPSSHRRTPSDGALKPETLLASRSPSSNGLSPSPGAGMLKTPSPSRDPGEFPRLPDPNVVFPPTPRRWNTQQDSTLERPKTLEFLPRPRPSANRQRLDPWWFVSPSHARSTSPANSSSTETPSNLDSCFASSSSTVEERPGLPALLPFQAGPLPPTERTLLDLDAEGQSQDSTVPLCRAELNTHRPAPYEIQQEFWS

[23] = molecular target: MAPK13 (human) (UniProt O15264)
[24] = molecular target: MARK2 (human) (UniProt Q7KZI7)
[25] = molecular target: MATK (human) (UniProt P42679)
Chain of MATK (human) (P42679 whole entry, looked up): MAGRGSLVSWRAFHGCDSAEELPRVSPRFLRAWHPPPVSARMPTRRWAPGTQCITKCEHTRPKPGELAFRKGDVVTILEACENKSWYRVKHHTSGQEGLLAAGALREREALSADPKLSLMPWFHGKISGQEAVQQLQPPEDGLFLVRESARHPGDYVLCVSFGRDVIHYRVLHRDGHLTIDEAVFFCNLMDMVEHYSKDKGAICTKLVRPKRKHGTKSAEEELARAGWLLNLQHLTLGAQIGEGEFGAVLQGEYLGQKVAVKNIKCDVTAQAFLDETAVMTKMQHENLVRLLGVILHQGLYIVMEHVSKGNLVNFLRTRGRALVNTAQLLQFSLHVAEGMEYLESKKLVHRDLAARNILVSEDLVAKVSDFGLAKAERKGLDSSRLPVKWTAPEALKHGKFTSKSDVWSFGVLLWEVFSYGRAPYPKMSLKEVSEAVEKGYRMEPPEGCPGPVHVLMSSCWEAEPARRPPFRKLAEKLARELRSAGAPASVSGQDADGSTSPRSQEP

[26] = molecular target: MINK1 (human) (UniProt Q8N4C8)
[27] = molecular target: MUSK (human) (UniProt O15146)
[28] = molecular target: NEK5 (human) (UniProt Q6P3R8)
[29] = molecular target: NEK6 (human) (UniProt Q9HC98)
[30] = molecular target: NEK7 (human) (UniProt Q8TDX7)
[31] = molecular target: PAK7 (human) (UniProt Q9P286)
[32] = molecular target: PIK3C2G (human) (UniProt O75747)
[33] = molecular target: PLK2 (human) (UniProt Q9NYY3)
[34] = molecular target: RIOK2 (human) (UniProt Q9BVS4)
Chain of RIOK2 (human) (Q9BVS4 whole entry, looked up): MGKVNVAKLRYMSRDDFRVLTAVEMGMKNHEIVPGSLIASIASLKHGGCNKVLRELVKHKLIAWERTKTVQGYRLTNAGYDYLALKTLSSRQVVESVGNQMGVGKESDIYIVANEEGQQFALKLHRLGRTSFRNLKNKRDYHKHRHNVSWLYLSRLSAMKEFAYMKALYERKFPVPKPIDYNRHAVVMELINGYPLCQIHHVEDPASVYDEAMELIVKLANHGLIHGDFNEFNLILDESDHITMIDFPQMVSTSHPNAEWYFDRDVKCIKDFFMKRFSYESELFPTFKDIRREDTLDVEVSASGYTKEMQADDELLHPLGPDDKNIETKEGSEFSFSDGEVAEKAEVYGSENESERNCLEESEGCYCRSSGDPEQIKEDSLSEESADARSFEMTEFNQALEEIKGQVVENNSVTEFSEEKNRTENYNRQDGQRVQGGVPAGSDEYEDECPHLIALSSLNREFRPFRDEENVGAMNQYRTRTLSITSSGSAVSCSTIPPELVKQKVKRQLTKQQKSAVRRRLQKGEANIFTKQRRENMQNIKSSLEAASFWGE

[35] = molecular target: ROCK2 (human) (UniProt O75116)
[36] = molecular target: SIK2 (human) (UniProt Q9H0K1)
[37] = molecular target: STK17A (human) (UniProt Q9UEE5)
[38] = molecular target: STK24 (human) (UniProt Q9Y6E0)
[39] = molecular target: STK4 (human) (UniProt Q13043)
Chain of STK4 (human) (Q13043 whole entry, looked up): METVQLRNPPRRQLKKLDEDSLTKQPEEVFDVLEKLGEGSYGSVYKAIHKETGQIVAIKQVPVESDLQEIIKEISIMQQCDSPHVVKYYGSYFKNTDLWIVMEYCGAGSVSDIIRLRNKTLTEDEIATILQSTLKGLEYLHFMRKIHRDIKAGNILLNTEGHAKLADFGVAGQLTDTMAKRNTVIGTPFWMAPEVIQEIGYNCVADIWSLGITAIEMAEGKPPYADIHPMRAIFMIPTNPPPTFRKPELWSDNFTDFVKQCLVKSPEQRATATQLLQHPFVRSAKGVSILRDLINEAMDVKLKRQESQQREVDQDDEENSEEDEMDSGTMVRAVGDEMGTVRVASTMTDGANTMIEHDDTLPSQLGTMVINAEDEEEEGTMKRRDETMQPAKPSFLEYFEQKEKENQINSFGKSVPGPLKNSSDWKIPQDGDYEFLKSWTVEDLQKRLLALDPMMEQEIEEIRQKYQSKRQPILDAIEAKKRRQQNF

[40] = molecular target: TYK2 JH2 pseudokinase (human) (UniProt P29597)

Chain of AKT1 (human) (P31749 whole entry, looked up): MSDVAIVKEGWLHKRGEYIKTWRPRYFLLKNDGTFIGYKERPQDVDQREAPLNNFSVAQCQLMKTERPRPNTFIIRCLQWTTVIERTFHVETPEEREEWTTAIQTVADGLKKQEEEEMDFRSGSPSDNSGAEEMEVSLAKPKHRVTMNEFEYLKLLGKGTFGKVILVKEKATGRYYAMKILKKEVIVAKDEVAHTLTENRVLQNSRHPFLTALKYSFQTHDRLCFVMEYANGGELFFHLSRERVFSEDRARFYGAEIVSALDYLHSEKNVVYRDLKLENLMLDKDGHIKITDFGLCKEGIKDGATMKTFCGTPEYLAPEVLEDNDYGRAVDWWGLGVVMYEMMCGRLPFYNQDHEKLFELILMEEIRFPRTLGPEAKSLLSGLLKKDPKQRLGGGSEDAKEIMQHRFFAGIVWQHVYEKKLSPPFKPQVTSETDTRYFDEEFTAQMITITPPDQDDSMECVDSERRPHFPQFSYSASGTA
Chain of ACVR1 (human) (Q04771 whole entry, looked up): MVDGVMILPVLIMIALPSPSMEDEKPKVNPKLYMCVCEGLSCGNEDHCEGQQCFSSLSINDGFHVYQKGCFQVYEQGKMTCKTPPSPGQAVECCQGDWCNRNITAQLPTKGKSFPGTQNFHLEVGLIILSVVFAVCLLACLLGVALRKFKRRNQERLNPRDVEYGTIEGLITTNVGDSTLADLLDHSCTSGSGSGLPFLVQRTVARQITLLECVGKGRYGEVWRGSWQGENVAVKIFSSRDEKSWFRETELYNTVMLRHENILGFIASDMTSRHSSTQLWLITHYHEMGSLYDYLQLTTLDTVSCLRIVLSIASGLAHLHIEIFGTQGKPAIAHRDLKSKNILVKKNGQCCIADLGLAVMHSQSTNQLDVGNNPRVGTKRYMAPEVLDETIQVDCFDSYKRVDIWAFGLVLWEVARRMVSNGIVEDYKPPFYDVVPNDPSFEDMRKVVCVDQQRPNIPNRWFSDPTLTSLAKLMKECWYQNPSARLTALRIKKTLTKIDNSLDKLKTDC

SMILES | kinase still bound, per cent of control [1] | kinase still bound, per cent of control [2] | kinase still bound, per cent of control [3] | kinase still bound, per cent of control [4] | kinase still bound, per cent of control [5] | kinase still bound, per cent of control [6] | kinase still bound, per cent of control [7] | kinase still bound, per cent of control [8] | kinase still bound, per cent of control [9] | kinase still bound, per cent of control [10] | kinase still bound, per cent of control [11] | kinase still bound, per cent of control [12] | kinase still bound, per cent of control [13] | kinase still bound, per cent of control [14] | kinase still bound, per cent of control [15] | kinase still bound, per cent of control [16] | kinase still bound, per cent of control [17] | kinase still bound, per cent of control [18] | kinase still bound, per cent of control [19] | kinase still bound, per cent of control [20] | further results
O=c1[nH]c2ccccc2n1C1CCN(Cc2ccc(-c3nc4cc5[nH]cnc5cc4nc3-c3ccccc3)cc2)CC1 | 100% | 92% | 100% | 77% | 100% | 97% | 98% | 100% | 100% | 76% | 100% | 100% | 92% | 100% | 100% | 97% | 67% | 56% | 80% | 83% | kinase still bound, per cent of control [21]: 78%; kinase still bound, per cent of control [22]: 96%; kinase still bound, per cent of control [23]: 100%; kinase still bound, per cent of control [24]: 83%; kinase still bound, per cent of control [25]: 70%; kinase still bound, per cent of control [26]: 88%; kinase still bound, per cent of control [27]: 100%; kinase still bound, per cent of control [28]: 97%; kinase still bound, per cent of control [29]: 100%; kinase still bound, per cent of control [30]: 82%; kinase still bound, per cent of control [31]: 58%; kinase still bound, per cent of control [32]: 75%; kinase still bound, per cent of control [33]: 88%; kinase still bound, per cent of control [34]: 79%; kinase still bound, per cent of control [35]: 73%; kinase still bound, per cent of control [36]: 85%; kinase still bound, per cent of control [37]: 100%; kinase still bound, per cent of control [38]: 100%; kinase still bound, per cent of control [39]: 77%; kinase still bound, per cent of control [40]: 66%
CC1=C(C(=O)Nc2cc3cn[nH]c3cc2F)C(c2ccc(C(F)(F)F)cc2)CC(=O)N1 (stereo not given) | 70% | 100% | 100% | 76% | 72% | 55% | 24% | 77% | 100% | 69% | 91% | 88% | 81% | 67% | 53% | 74% | 12% | 100% | 90% | 82% | kinase still bound, per cent of control [21]: 97%; kinase still bound, per cent of control [22]: 93%; kinase still bound, per cent of control [23]: 98%; kinase still bound, per cent of control [24]: 99%; kinase still bound, per cent of control [25]: 68%; kinase still bound, per cent of control [26]: 71%; kinase still bound, per cent of control [27]: 95%; kinase still bound, per cent of control [28]: 90%; kinase still bound, per cent of control [29]: 70%; kinase still bound, per cent of control [30]: 78%; kinase still bound, per cent of control [31]: 79%; kinase still bound, per cent of control [32]: 52%; kinase still bound, per cent of control [33]: 86%; kinase still bound, per cent of control [34]: 86%; kinase still bound, per cent of control [35]: 0.1%; kinase still bound, per cent of control [36]: 99%; kinase still bound, per cent of control [37]: 95%; kinase still bound, per cent of control [38]: 52%; kinase still bound, per cent of control [39]: 100%; kinase still bound, per cent of control [40]: 100%
